Results from patent US7863328B2, “Phenylbenzoic acid derivatives, processes for the preparation thereof, pharmaceutical compositions comprising them, and therapeutic uses thereof” (Merck Patent GmbH, priority 2005, dated 2011).

Target: T1, chimeric protein PPARγ-Gal4 (Homo sapiens, UniProt P37231)
T1 construct: expressed in transfected cells; host or cells: CV-1 cells (monkey kidney cells)
Assay: PPARγ-Gal4 transactivation test (luciferase reporter) in cotransfected CV-1 cells
Format: cell-based
Description: The measurement of the PPAR activation was performed according to a technique described by Lehmann et al. (J. Biol. Chem., 270, (1995), 12953-12956).
CV-1 cells (monkey kidney cells) are cotransfected with an expression vector for the chimeric protein PPARγ-Gal4 and with a “reporter” plasmid that allows expression of the luciferase gene placed under the control of a promoter comprising Gal4 response elements.
The cells are seeded in 96-well microplates and cotransfected using a commercial reagent with the reporter plasmid (pG5-tk-pGL3) and the expression vector for the chimeric protein (PPARγ-Gal4). After incubation for 4 hours, whole culture medium (comprising 10% foetal calf serum) is added to the wells. After 24 hours, the medium is removed and replaced with whole medium comprising the test products. The products are left in contact with the cells for 18 hours. The cells are then lysed and the luciferase activity is measured using a luminometer. A PPARγ activation factor can then be calculated by means of the activation of the expression of the reporter gene induced by the product (relative to the control cells that have received no product).
In the absence of the PPARγ ligand binding domain (vector expressing Gal4 alone), the luciferase activity measured in the presence of this product is zero.
The following transactivation result was obtained with a concentration of 30 μM on PPARγ.
The transactivation test using the expression of a chimeric protein Gal-4-PPARγ makes it possible to determine also whether an agonist functions as a “full” agonist or as a “partial” agonist in this system.
An agonist is “partial” in this system if it induces a weaker response, i.e. it has lower efficacy, than rosiglitazone, which is a “full” agonist. In concrete terms, in our system, the transactivation obtained at the plateau with a partial agonist will be between 20% and 50% of the maximum response (efficacy) at the plateau of rosiglitazone.

T1 sequence (P37231 238-503 limits assumed, change not shown): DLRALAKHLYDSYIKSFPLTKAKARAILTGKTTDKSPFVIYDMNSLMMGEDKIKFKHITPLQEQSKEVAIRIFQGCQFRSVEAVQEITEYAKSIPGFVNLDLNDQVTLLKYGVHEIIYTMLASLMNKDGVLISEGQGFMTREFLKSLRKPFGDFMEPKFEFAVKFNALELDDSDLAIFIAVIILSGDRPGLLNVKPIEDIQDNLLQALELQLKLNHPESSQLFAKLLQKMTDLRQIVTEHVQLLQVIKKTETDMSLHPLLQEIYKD
T1 sequence (P04386 1-147 partner limits assumed): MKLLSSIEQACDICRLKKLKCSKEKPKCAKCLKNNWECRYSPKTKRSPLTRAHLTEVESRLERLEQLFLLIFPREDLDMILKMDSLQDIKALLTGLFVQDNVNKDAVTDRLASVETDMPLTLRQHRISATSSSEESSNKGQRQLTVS

Row | SMILES | Activation factor of the chimeric protein PPARγ-Gal4 (concentration 30 μM, 18 hours contact, relative to control cells that have received no product (control = 1)) | Concentration to reach the maximum stimulation of the PPARγ chimeric protein (Gal4-PPARγ transactivation, plateau) [µM] | Emax (transactivation at the plateau as % of the maximum response (efficacy) of rosiglitazone, read-out: Maximum stimulation of the PPARγ chimeric protein obtained with rosiglitazone) [%]
1 | Cc1cc(COc2cc3c(cc2-c2ccc(C(=O)O)cc2)CCC3=O)no1 [Example 29, 4-[6-(5-methylisoxazol-3-ylmethoxy)-1-oxoindan-5-yl]benzoic acid] | 16 | – | –
2 | Cc1oc(-c2ccccc2)nc1COc1cc2c(cc1-c1ccc(C(=O)O)cc1)CCC2=O [Example 4, 4-[6-(5-Methyl-2-phenyloxazol-4-ylmethoxy)-1-oxoindan-5-yl]-benzoic acid] | – | 6.25 | 23
